From patent US4963565A, “In vivo treatment of mycobacterial infections with 6-cyclo octylamino-5,8-quinoline quinone” (priority 1986, dated 1990)

Experiments:
M. tuberculosis H37 Rv = assay: In vitro activity against growing culture of M. tuberculosis in Middlebrook 7H9 broth; conditions: 2 mcg/ml, FIG. 7
[1] = test system: M. intracellulare (571-8 strain); assay: In vivo activity of different doses against acute M. intracellulare infections in Beige mice (Example III); design: species or system M. intracellulare (host: Beige mice)
M. intracellulare = conditions: Gangadharam et al.; cited from earlier work
[2] = Acute toxicity in C57Bl/6 mice; format: in vivo; conditions: mouse, in vivo, ip; C57Bl/6 mice, intraperitoneal
Method: (§1) Studies were performed to obtain toxicity data. […] Extrapolating, this corresponds to an LD50 of approximately 40 gr for a 70 kg subject. For chronic toxicity studies both C57Bl/6 and Beige mice were administered doses of 40 mg/kg/day, and intraperitoneal doses over 30 mg/kg for more than 60 days.

C57Bl/6 mice = assay: Acute toxicity in C57Bl/6 mice; format: in vivo; conditions: 70 kg subject, extrapolated from mouse LD50
Method: as §1

Mycobacterium leprae = assay: Inhibitory activity against Mycobacterium leprae in the macrophage model (3H thymidine uptake); format: cell-based, M. leprae (in human monocyte derived macrophages); design: Inhibition of 3H thymidine uptake: dose or concentration left out as unconfirmed
From the text: The effect of CQQ on Mycobacterium leprae, the causative agent for leprosy, was studied using monocyte derived macrophages obtained from human volunteers.
Blood from a healthy volunteer was drawn and monocytes were removed and cultured to the macrophage stage. This required about 7 days. The macrophages were then exposed to M. leprae bacilli obtained from biopsy specimens of leprosy patients. One sample was exposed to CQQ, while other samples were exposed to DDS (diaminodiphenyl sulphone), the standard antileprosy drug, or rifampin, at various concentrations. Macrophages were exposed to radiolabelled tritium (^3 H) labeled thymidine, and its uptake was measured using a liquid scintillation counter. A control model of M. leprae exposed macrophages, which was not treated was used as well. The uptake of thymidine is a measure of antimycobacterial activity.

lymphocytes = assay: Effect on chromosomal structures in lymphocytes; format: cell-based, human; conditions: 0.5 ml of 10 mcg/ml solution
Method: In order to determine the effect of CQQ on chromosomes, blood was collected from a healthy volunteer, and lymphocytes were isolated from the sample. These were cultivated in a folate deficient medium, and after approximately 24 hours of cultivation, 0.5 ml of a solution of CQQ (10 mcg/ml) was added to the culture. Incubation at 37° C. for 72 hours followed. The lymphocytes were then harvested, following routine laboratory porocedures and were stained with Giemsa stain.

## O=C1C(NC2CCCCCCC2)=CC(=O)c2ncccc21 [CQQ, 6-cyclo octylamino-5,8-quinoline quinone]
M. tuberculosis H37 Rv
  Inhibitory activity against tubercle bacilli: remarkable inhibitory activity
[1]; 20 mg/kg vs 10 mg/kg
  Dose comparison, 20 vs 10 mg/kg: The dose of 20 mg/kg is better than 10 mg/kg dose
[1]; 10 or 20 mg/kg, FIGS. 3 and 4
  Inhibitory activity, reduction of CFU counts from spleens and lungs: considerable inhibitory activity
[1]; 10 or 20 mg/kg, spleens and lungs (P 0.05)
  Duration of statistically significant differences in CFU counts: up to 6 weeks
[1]; FIG. 4 vs FIG. 3
  Effect in lung vs spleen: more pronounced in the lung (FIG. 4) than in the spleen
M. intracellulare
  In vitro effectiveness against M. intracellulare: effective against M. intracellulare and M. tuberculosis in vitro
[2]
  LD50: 564 mg/kg
C57Bl/6 mice
  LD50 extrapolated to a 70 kg subject: approximately 40 gr
Mycobacterium leprae; Sample I, 5 NG/ML
  Counts per minute (3H thymidine uptake): 2.4 COUNTS PER MINUTE
Mycobacterium leprae; Sample I, 25 NG/ML
  Counts per minute (3H thymidine uptake): 93 COUNTS PER MINUTE
Mycobacterium leprae; Sample I, 50 NG/ML
  Counts per minute (3H thymidine uptake): 93 COUNTS PER MINUTE
Mycobacterium leprae; Sample I, 100 NG/ML
  Counts per minute (3H thymidine uptake): 84 COUNTS PER MINUTE
Mycobacterium leprae; Sample I, CQQ 10 NG/ML
  Counts per minute (3H thymidine uptake): 2.3 COUNTS PER MINUTE
Mycobacterium leprae; Sample II, 5 NG/ML
  Counts per minute (3H thymidine uptake): 6 COUNTS PER MINUTE
Mycobacterium leprae; Sample II, 25 NG/ML
  Counts per minute (3H thymidine uptake): 69 COUNTS PER MINUTE
Mycobacterium leprae; Sample II, 50 NG/ML
  Counts per minute (3H thymidine uptake): 76 COUNTS PER MINUTE
Mycobacterium leprae; Sample II, 100 NG/ML
  Counts per minute (3H thymidine uptake): 76 COUNTS PER MINUTE
Mycobacterium leprae; Sample II, 200 NG/ML
  Counts per minute (3H thymidine uptake): 91 COUNTS PER MINUTE
Mycobacterium leprae; Sample II, CQQ 10 NG/ML
  Counts per minute (3H thymidine uptake): 13 COUNTS PER MINUTE
Mycobacterium leprae; Sample III, 5 NG/ML
  Counts per minute (3H thymidine uptake): 2 COUNTS PER MINUTE
Mycobacterium leprae; Sample III, 25 NG/ML
  Counts per minute (3H thymidine uptake): 37 COUNTS PER MINUTE
Mycobacterium leprae; Sample III, CQQ 10 NG/ML
  Counts per minute (3H thymidine uptake): 2 COUNTS PER MINUTE
Mycobacterium leprae; another strain
  Activity with another strain of M. leprae: even greater activity
Mycobacterium leprae; conclusion from Table 3
  Antileprosy activity: considerable antileprosy activity
Mycobacterium leprae; two strains of M. leprae
  Inhibition of 3H thymidine uptake: significant inhibition
lymphocytes; 72 hours
  Assessment of chromosomal breaks: fully within the normal limits
lymphocytes; 72 hours at 37° C., at least 50 cells counted
  Total number of chromosomal breaks: 7
lymphocytes; 72 hours at 37° C., of at least 50 cells counted
  Cells with chromosomal breaks: 5
